In patent US8729034B2, “Pharmaceutical composition having virucidal and spermicidal activity” (priority 2007, dated 2014):
Entries after “also recorded” stand apart in the source; their conditions may differ.

Experiments:
[1] = system: Lactobacillus acidophilus; type: cell-based
Experimental: The media for culture of bacteria purchased from HI-MEDIA, India and spores of Lactobacillus acidophilus were obtained from pharmaceutical capsule marketed by Infer (India) Limited.
Sterile, molten (45-50 degree C.) Lactobacilli MRS agar was poured into sterile Petri dishes with (a) 1, 10, 100, 200, 500 mg of Ac-B (Experimental) and (b) without Ac-B (Control). The plates were placed within an incubator having 37 degree C. inside temperature and 5% CO2 in air for 72 hours. The number of colonies and their individual size were compared.

Female cycling rats = test: Intra uterine application of Ac-B and IUI in rat, fertilization outcome; type: in vivo, Sprague-Dawley rats
Experimental: Female cycling rats weighing 180-200 g were obtained from the institutional Animal House. The duplex nature of the rat uterus with separate cervical canal helped us to organize both control and experimental sets in the same animal with exposure to identical physiological milieu.
On the day of pro-estrous, both horns of the uterus were exposed by mid-ventral incision of the abdomen under light anesthesia following intra peritoneal injection of Ketamin at a concentration of 100 mg/kg body weight, supported by inhalation of anesthetic-ether, during 17.00-17.30 hours of the day. IUI was performed by injecting 50 microliters of sperm suspensions with varied concentration (25-30, 40-50, and 50-55 million sperms/ml) through a 24 G needle fitted onto a tuberculin syringe in the cervical end of the uterine lumen of each horn. The muscle in the injection site was held tightly for a while to prevent leakage through the puncture. Prior to IUI, each rat received a injection of 1.75 mg Ac-B in 50 microliters BWW medium in the left horn and simple BWW medium in the right horn. The opened abdominal muscle and skin layers were properly sutured by suturing silk thread. The outer most skin layers were further fixed by metal clips. The wound was properly cleaned with antiseptic lotions. Each operated animal was housed individually in fresh cage for collection and counting of unfertilized oocytes, two celled embryos, and fragmented bodies. […] The abdomen was opened and each of the fallopian tubes was collected carefully. The content of each tube was flushed out by introducing BWW medium into each tube with the help of a 30 G hypodermic needle in a watch glass. The flushed out lavage was examined under an inverted phase contrast microscope (Leitz, Labovert, ×100) to score the number of recovered fertilized/unfertilized eggs from individual fallopian tube.

rat spermatozoa [2] = test: Hypo-osmotic swelling (HOS) test; type: cell-based
Experimental: A hypotonic solution was prepared by dissolving 0.735 g sodium citrate dehydrate and 1.351 g fructose in 100 ml distilled water (Milli Q). Aliquots of this solution kept frozen in −20 degree C. and thawed before use. For the test, 200 microliters of working suspension of rat spermatozoa was treated with one ml of Ac-B solution (at MEC) or BWW (as control) for 20 seconds followed by washing with BWW medium and centrifugation at 1000 rpm for 5 min. Finally the sperm pellet was resuspended in 0.1 ml BWW medium. One ml of prewarmed (37 degree C.) HOS solution was added to the suspension and incubated for one hour at 37 degree C. The incubated sperms were examined under a phase contrast microscope at ×400 magnification to observe the curling of tails. Two hundred spermatozoa were examined for each sample.

rat spermatozoa [3] = test: Sander & Cramer spermicidal assay (in vitro); type: cell-based
Experimental: (§1) Sexually mature male mice and rats were autopsied following euthanasia by an overdose of Ketamin (≧200 mg/kg body weight; injected i.p.) and their cauda epididymis were excised. Working suspension of animal spermatozoa was prepared with the exudates obtained after careful pricking of the cauda epididymis with an injection needle (18 G) and the exudates were collected in a conical centrifuge tube.
(§2) The exudates/liquefied human semen samples were suspended in BWW medium (pre equilibrated at 37 degree C.). The spermatozoa with forward motility were separated from immotile or sluggishly motile cells by the swim-up technique and were allowed to disperse evenly within a CO2 incubator at 37 degree C. At least five aliquots from each sample was used to prepare the working spermatozoa suspension. The swim up procedure was as follows:
(§3) Pre equilibrated BWW medium (1.25 ml) was gently layered over cauda-exudates or liquefied human semen (1 ml) in a sterile 15 ml conical-based centrifuge tube. The tube was inclined at an angle of 45 degree and incubated for 1 hour at 37 degree C. in a CO2-incubator. It was then gently returned to the upright position and the uppermost 1 ml medium with a turbid appearance was removed. This aliquot of motile cells was pooled from each set, then diluted with same volumes of pre equilibrated BWW medium, centrifuged at 500 g for 5 minutes and finally resuspended in 1 ml pre equilibrated BWW medium to obtain a working suspension. The sperm cells were counted in a Makler chamber (Zygotec Systems, Springfield, M A, USA) and finally a working spermatozoa suspension having concentration of 25 to 30×10^6 cells/ml was prepared.
(§4) For in vitro assay of spermicidal effect, sperms collected from proven male rats and mice, and motile spermatozoa from liquefied human semen were used.
(§5) The assay was done following the Sander & Cramer assay method. Two hundred micro liter (200 microliters) of working spermatozoa suspension was added to 1 ml solution of test material in BWW medium and mixed on a light vortex for 10 seconds. A wet mount was immediately prepared on a clean microscopy glass slide and examined (at ×100) under a phase contrast microscope (Leitz, Biomed). The weakest concentration that immobilized all spermatozoa within 20 seconds of mixing was recorded as MEC. At least five fields were examined for each wet mount preparation. The observation was repeated with five individual spermatozoa suspension for each concentration of test compound solution. For negative control, saponin solutions were replaced by equal volume of BWW medium, while Nonoxynol 9 was used as positive control.

mouse spermatozoa = test: Sander & Cramer spermicidal assay (in vitro); type: cell-based
Experimental: as §1, §2, §3, §4, §5

[4] = 1.75 mg Ac-B intrauterine, sperm count 25-30 million/ml (N = 3)
[5] = 1.75 mg Ac-B intrauterine, sperm count 40-50 million/ml (N = 4)
[6] = 1.75 mg Ac-B intrauterine, sperm count 50-55 million/ml (N = 4)

Substance: Acaciaside-B [Ac-B]
- Dose level not affecting growth of Lactobacillus acidophilus [1]: ≥ 500 mg/mL
- Size of Lactobacillus colonies grown in the presence of Ac-B [1]: comparable to that of control
- Fertilized (number of eggs), treated horn (Female cycling rats; 1.75 mg Ac-B in 50 microliters BWW intrauterine before IUI, sperm count 25-30 million/ml (N = 3), flushing 38-40 hours after IUI): 0 (0%)
- Fertilized (%), treated horn (Female cycling rats; [4]): 0 (0%)
- Unfertilized (%), treated horn (Female cycling rats; [4]): 100%
- Unfertilized (number of eggs), treated horn (Female cycling rats; [4]): 17
- Fertilized (number of eggs), treated horn (Female cycling rats; [5]): 0 (%)
- Unfertilized (%), treated horn (Female cycling rats; [5]): 100%
- Unfertilized (number of eggs), treated horn (Female cycling rats; [5]): 19
- Fertilized (%), treated horn (Female cycling rats; [6]): 18%
- Fertilized (number of eggs), treated horn (Female cycling rats; [6]): 3
- Unfertilized (%), treated horn (Female cycling rats; [6]): 82%
- Unfertilized (number of eggs), treated horn (Female cycling rats; [6]): 13
- Response to HOS (HOS+), Hypo-osmotic Swelling Test (rat spermatozoa [2]; Ac-B at MEC for 20 seconds, 1 hour in HOS solution at 37 degree C): 0% (HOS+)
- HOS reactivity (curling of tails) of treated spermatozoa (rat spermatozoa [2]; Ac-B treated): no HOS reactivity; also recorded: absence of curling
- MEC as per Sander and Cramer Test (rat spermatozoa [3]; Rat spermatozoa (N = 10), all immobilized within 20 seconds): 60 (±2) microgram per ml
- MEC, Sander-Cramer test (rat spermatozoa [3]; rats): 60 µg/mL
- MEC as per Sander and Cramer Test (mouse spermatozoa; Mouse spermatozoa (N = 10), all immobilized within 20 seconds): 60 (±2) microgram per ml
- MEC, Sander-Cramer test (mouse spermatozoa; mice): 60 µg/mL
